Measured values as given in patent US7691900B2, “Tocopherol derivatives with a long hydroxylated chain, which can be used as neurotrophics” (AxoGlia Therapeutics S.A., priority 2003, dated 2010).

System: microglial cells activated by LPS
Assay: Release of TNF-α (ELISA) in LPS-activated microglial cell cultures
Format: cell-based
Conditions: microglia treated with 0.01 μg/ml LPS; 24 h activation; tested at 10^-5, 10^-6, 10^-7 M
Procedure: 2. Measurement of the Release of TNF-α
The expression of the TNF-a represents a parameter for microglial activation often analyzed in the literature. […] A 24 hrs activation by LPS leads to a high increase in the level of TNF-α expression detectable by the ELISA test.
In the experiments, the concentrations of TNF-α in the microglial cell cultures, treated with 0.01 μg/ml of LPS in the presence of TFA-10, TFA-12, TFA-14, TFA-16 and vitamin E, at concentrations of 10^−5, 10^−6 and 10^−7 M, were measured by the inventors after 24 hours activation.

vitamin E
activity on TNF-α production, in words: no activity
